Test results published in US20100311714A1, “1H-IMIDAZO[4,5-c]QUINOLINONE COMPOUNDS” (priority 2009, published 2010).
Where two headings read alike, the source gives them in different places. One block for each molecule: values may come before it.

Experiments:
[1] = system: PKB Ser473 phosphorylation in Rat1-myr-HA-p110 delta cells; assay: Reverse protein array, PKB Ser473 phosphorylation in Rat1-myr-HA-p110 delta cells; type: cell-based; settings: Rattus norvegicus, 0.5 h, 30 minutes compound incubation, read-out: p-PKB/IC50_delta
[2] = system: S6 Ribosomal Protein phosphorylation Ser235/236 in TSC1 null mouse embryo fibroblast (MEF) cells; assay: Reverse protein array, S6 Ribosomal Protein phosphorylation in TSC1 null MEF cells; type: cell-based; settings: 1 h, TSC1-/- MEFs, 60 minutes
How it was run: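 Phospho-S6 (Ser235/236) was quantified by reverse protein array of cell lysates with a phospho-specific primary antibody. […]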

SMILES: COCCN(C)c1ccc(-n2c(=O)n(C)c3cnc4ccc(-c5cnc(N(C)C)nc5)cc4c32)c(C)n1 [Example 15.5, 8-(2-Dimethylamino-pyrimidin-5-yl)-1-{6-[(2-methoxy-ethyl)-methyl-amino]-2-methyl-pyridin-3-yl}-3-methyl-1,3-dihydro-imidazo[4,5-c]quinolin-2-one]
IC50 [1]: 229 nM | IC50 ([2]; read-out: p-S6 IC50): 19 nM

SMILES: CCOc1ccc(-c2ccc3ncc4c(c3c2)n(-c2ccc(C)nc2C)c(=O)n4C)cn1 [Example 14.2, 1-(2,6-Dimethyl-pyridin-3-yl)-8-(6-ethoxy-pyridin-3-yl)-3-methyl-1,3-dihydro-imidazo[4,5-c]quinolin-2-one]
IC50 [1]: 68.1 nM | IC50 ([2]; read-out: p-S6 IC50): 16 nM

SMILES: COCCN(C)c1ccc(-n2c(=O)n(C)c3cnc4ccc(-c5cnc(N)c(C(F)(F)F)c5)cc4c32)c(C)n1 [Example 15.1, 8-(6-Amino-5-trifluoromethyl-pyridin-3-yl)-1-{6-[(2-methoxy-ethyl)-methyl-amino]-2-methyl-pyridin-3-yl}-3-methyl-1,3-dihydro-imidazo[4,5-c]quinolin-2-one]
IC50 [1]: 13.3 nM | IC50 ([2]; read-out: p-S6 IC50): 1 nM

SMILES: Cc1ccc(-n2c(=O)n(C)c3cnc4ccc(-c5cnc(N)c(C(F)(F)F)c5)cc4c32)c(C)n1 [Example 14.5, 8-(6-Amino-5-trifluoromethyl-pyridin-3-yl)-1-(2,6-dimethyl-pyridin-3-yl)-3-methyl-1,3-dihydro-imidazo[4,5-c]quinolin-2-one]
IC50 [1]: 14.4 nM | IC50 ([2]; read-out: p-S6 IC50): 1 nM

SMILES: CCOc1ccc(-c2ccc3ncc4c(c3c2)n(-c2ccc(OCCOC)nc2C)c(=O)n4C)cn1 [Example 13.1, 8-(6-Ethoxy-pyridin-3-yl)-1-[6-(2-methoxy-ethoxy)-2-methyl-pyridin-3-yl]-3-methyl-1,3-dihydro-imidazo[4,5-c]quinolin-2-one]
IC50 [1]: 113 nM | IC50 ([2]; read-out: p-S6 IC50): 18 nM

SMILES: CCNc1cc(-c2ccc3ncc4c(c3c2)n(-c2ccc(OC)nc2C)c(=O)n4C)cnc1C [Example 11.7, 8-(5-Ethylamino-6-methyl-pyridin-3-yl)-1-(6-methoxy-2-methyl-pyridin-3-yl)-3-methyl-1,3-dihydro-imidazo[4,5-c]quinolin-2-one]
IC50 [1]: 8.3 nM | IC50 ([2]; read-out: p-S6 IC50): 2 nM

SMILES: Cc1ccc(-n2c(=O)n(C)c3cnc4ccc(-c5cnc(N(C)C)nc5)cc4c32)c(C)n1 [Example 14.3, 8-(2-Dimethylamino-pyrimidin-5-yl)-1-(2,6-dimethyl-pyridin-3-yl)-3-methyl-1,3-dihydro-imidazo[4,5-c]quinolin-2-one]
IC50 [1]: 122 nM | IC50 ([2]; read-out: p-S6 IC50): 10 nM

SMILES: CCOc1ccc(-c2ccc3ncc4c(c3c2)n(-c2cccnc2OC)c(=O)n4C)cn1 [Example 1.5, 8-(6-Ethoxy-pyridin-3-yl)-1-(2-methoxy-pyridin-3-yl)-3-methyl-1,3-dihydro-imidazo[4,5-c]quinolin-2-one]
IC50 [1]: 59.6 nM | IC50 ([2]; read-out: p-S6): 48.6 nM

SMILES: CNc1ncc(-c2ccc3ncc4c(c3c2)n(-c2ccc(C)nc2C)c(=O)n4C)cn1 [Example 14.4, 1-(2,6-Dimethyl-pyridin-3-yl)-3-methyl-8-(2-methylamino-pyrimidin-5-yl)-1,3-dihydro-imidazo[4,5-c]quinolin-2-one]
IC50 [1]: 32.6 nM | IC50 ([2]; read-out: p-S6 IC50): 7 nM

SMILES: COCCOc1ccc(-n2c(=O)n(C)c3cnc4ccc(-c5cnc(N)c(C(F)(F)F)c5)cc4c32)c(C)n1 [Example 13.2, 8-(6-Amino-5-trifluoromethyl-pyridin-3-yl)-1-[6-(2-methoxy-ethoxy)-2-methyl-pyridin-3-yl]-3-methyl-1,3-dihydro-imidazo[4,5-c]quinolin-2-one]
IC50 [1]: 29.4 nM | IC50 ([2]; read-out: p-S6 IC50): 1 nM

SMILES: CNc1ncc(-c2ccc3ncc4c(c3c2)n(-c2ccc(N(C)CCOC)nc2C)c(=O)n4C)cn1 [Example 15.2, 1-{6-[(2-Methoxy-ethyl)-methyl-amino]-2-methyl-pyridin-3-yl}-3-methyl-8-(2-methylamino-pyrimidin-5-yl)-1,3-dihydro-imidazo[4,5-c]quinolin-2-one]
IC50 [1]: 53.3 nM | IC50 ([2]; read-out: p-S6 IC50): 7 nM

SMILES: CNc1ncc(-c2ccc3ncc4c(c3c2)n(-c2ccc(OCCOC)nc2C)c(=O)n4C)cn1 [Example 13.5, 1-[6-(2-Methoxy-ethoxy)-2-methyl-pyridin-3-yl]-3-methyl-8-(2-methylamino-pyrimidin-5-yl)-1,3-dihydro-imidazo[4,5-c]quinolin-2-one]
IC50 [1]: 37.1 nM | IC50 ([2]; read-out: p-S6 IC50): 1.1 nM

SMILES: CNc1ncc(-c2ccc3ncc4c(c3c2)n(-c2cnc(F)cc2C)c(=O)n4C)cn1 [Example 16.3, 1-(6-Fluoro-4-methyl-pyridin-3-yl)-3-methyl-8-(2-methylamino-pyrimidin-5-yl)-1,3-dihydro-imidazo[4,5-c]quinolin-2-one]
IC50 [1]: 304 nM | IC50 ([2]; read-out: p-S6 IC50): 22 nM

SMILES: COc1ccc(-c2ccc3ncc4c(c3c2)n(-c2cccnc2OC)c(=O)n4C)cn1 [Example 1.1, 1-(2-Methoxy-pyridin-3-yl)-8-(6-methoxy-pyridin-3-yl)-3-methyl-1,3-dihydro-imidazo[4,5-c]quinolin-2-one]
IC50 [1]: 53.3 nM | IC50 ([2]; read-out: p-S6): 24.5 nM

SMILES: Cc1ccc(-n2c(=O)n(C)c3cnc4ccc(-c5cnc6c(ccn6C)c5)cc4c32)c(C)n1 [Example 14.7, 1-(2,6-Dimethyl-pyridin-3-yl)-3-methyl-8-(1-methyl-1H-pyrrolo[2,3-b]pyridin-5-yl)-1,3-dihydro-imidazo[4,5-c]quinolin-2-one]
IC50 [1]: 45.4 nM | IC50 ([2]; read-out: p-S6 IC50): 3 nM

Now from value to molecule, other results behind:

IC50 [1]: 197 nM
SMILES: CNc1ccc(-c2ccc3ncc4c(c3c2)n(-c2ccc(NC(=O)COC)nc2C)c(=O)n4C)cn1 [Example 20.4, 2-Methoxy-N-{6-methyl-5-[3-methyl-8-(6-methylamino-pyridin-3-yl)-2-oxo-2,3-dihydro-imidazo[4,5-c]quinolin-1-yl]-pyridin-2-yl}-acetamide]
IC50 ([2]; read-out: p-S6 IC50): 63 nM

IC50 [1]: 194 nM
SMILES: COCC(=O)Nc1ccc(-n2c(=O)n(C)c3cnc4ccc(-c5cncc(N)c5)cc4c32)c(C)n1 [Example 20.1, N-{5-[8-(5-Amino-pyridin-3-yl)-3-methyl-2-oxo-2,3-dihydro-imidazo[4,5-c]quinolin-1-yl]-6-methyl-pyridin-2-yl}-2-methoxy-acetamide]
IC50 ([2]; read-out: p-S6 IC50): 32 nM

IC50 [1]: 64.5 nM
SMILES: Cc1nc(N2CCC(O)C2)ccc1-n1c(=O)n(C)c2cnc3ccc(-c4cncc(OC(C)C)c4)cc3c21 (stereo not shown) [Example 27.1, 1-[6-(3-Hydroxy-pyrrolidin-1-yl)-2-methyl-pyridin-3-yl]-8-(5-isopropoxy-pyridin-3-yl)-3-methyl-1,3-dihydro-imidazo[4,5-c]quinolin-2-one]
IC50 ([2]; read-out: p-S6 IC50): 2 nM

IC50 [1]: < 4.57 nM
SMILES: CNc1cc(-c2ccc3ncc4c(c3c2)n(-c2ccc(N(C)C)nc2C)c(=O)n4C)cnc1C [Example 19.2, 1-(6-Dimethylamino-2-methyl-pyridin-3-yl)-3-methyl-8-(6-methyl-5-methylamino-pyridin-3-yl)-1,3-dihydro-imidazo[4,5-c]quinolin-2-one]
IC50 ([2]; read-out: p-S6 IC50): 1.1 nM

IC50 [1]: 28.2 nM
SMILES: CNc1cc(-c2ccc3ncc4c(c3c2)n(-c2ccc(C(F)(F)F)nc2C)c(=O)n4C)cnc1CO [Example 33.2, 8-(6-Hydroxymethyl-5-methylamino-pyridin-3-yl)-3-methyl-1-(2-methyl-6-trifluoromethyl-pyridin-3-yl)-1,3-dihydro-imidazo[4,5-c]quinolin-2-one]
IC50 ([2]; read-out: p-S6 IC50): 2 nM
